Reference: ChEMBL document CHEMBL4483862, “Open-source discovery of chemical leads for next-generation chemoprotective antimalarials” (2018)

Tested on: Plasmodium berghei
Experiment: Luciferase/luciferin-expressing antifolate-resistant parasites were used to infect a culture of HepG2 cells that were pre-incubated with compounds. Infected hepatocytes emit light due to the luciferase reaction. Assay results are presented as the percent inhibition of light emission compared to control. […]
Format: functional
Settings: sporozoite; for IC90: read-out: LUCIFERASE INFECTION ASSAY - IC90
[1] = read-out: LUCIFERASE INFECTION ASSAY - IC50

With `Cc1ccc(C(C)NC(=O)Cc2c(C)[nH]c(-c3ccccn3)nc2=O)cc1` (stereo unspecified) the IC50 (HEPG2TOX_HILL_SLOPE 4.86, HEPG2TOX_R_SQUARED 0.498, PBLUC_HILL_SLOPE 12, PBLUC_R_SQUARED 0.399, read-out: LUCIFERASE INFECTION ASSAY - IC50) was 9.36 µM and the IC90 was over 10 µM.
`CCn1c2ccccc2c2nnc(SCC(=O)c3cc(C)n(C)c3C)nc21` gave an IC50 (HEPG2TOX_HILL_SLOPE 1.47, HEPG2TOX_R_SQUARED 0.958, read-out: LUCIFERASE INFECTION ASSAY - IC50) of over 10 µM and an IC90 of over 10 µM.
`CC(C)NC(=O)c1c(NC(=O)c2cccc(Cl)c2)nc2ccccn12` was tested, and the IC50 (HEPG2TOX_HILL_SLOPE 1.2, HEPG2TOX_R_SQUARED 0.976, PBLUC_HILL_SLOPE 4.43, PBLUC_R_SQUARED 0.437, read-out: LUCIFERASE INFECTION ASSAY - IC50) was 1.35 µM and the IC90 was 2.22 µM.
`COc1cc(C(=O)N2CC=C(c3c[nH]c4ccccc34)CC2)ccc1C` showed an IC50 [1] of over 10 µM and an IC90 of over 10 µM.
With `CCN1C(=O)N(Cc2ccccn2)C(=O)C12CCN(Cc1ccc3c(c1)Cc1ccccc1-3)CC2` the IC50 (HEPG2TOX_HILL_SLOPE 46.6, HEPG2TOX_R_SQUARED 0.935, PBLUC_HILL_SLOPE 4.5, PBLUC_R_SQUARED 0.25, read-out: LUCIFERASE INFECTION ASSAY - IC50) was 3.98 µM and the IC90 was 6.49 µM.
Compound `Cc1cccc(N2CCN(C(=O)/C=C/c3cnn(-c4ccccc4)c3)CC2)c1` has an IC50 [1] of over 10 µM and an IC90 of over 10 µM.
For `COc1ccc(-c2cnc3cnc(-c4cccc(C(=O)NCCO)c4)cn23)cn1`, the IC50 (PBLUC_HILL_SLOPE 11.3, PBLUC_R_SQUARED 0.241, read-out: LUCIFERASE INFECTION ASSAY - IC50) was 8.2 µM and the IC90 was over 8.47 µM.
Compound `CCO/C=N\C1=C(C#N)C(c2ccc(OC)cc2)c2ccc3ccccc3c2O1` (stereo unspecified) has an IC50 (HEPG2TOX_HILL_SLOPE 1.86, HEPG2TOX_R_SQUARED 0.624, read-out: LUCIFERASE INFECTION ASSAY - IC50) of over 8.58 µM and an IC90 of over 8.58 µM.
Compound `Oc1cccc(-c2cnc3cnc(-c4cccs4)cn23)c1` has an IC50 [1] of over 11.2 µM and an IC90 of over 11.2 µM.
With `CCCOc1c(/C=C/C(=O)c2ccc(OCC#N)cc2)cccc1OCC` the IC50 (PBLUC_HILL_SLOPE 10.6, PBLUC_R_SQUARED 0.425, read-out: LUCIFERASE INFECTION ASSAY - IC50) was 7.88 µM and the IC90 was 9.68 µM.
Work on `O=C(c1ccco1)N1CCN(c2nc(-c3ccsc3)nc3ccccc23)CC1` yielded an IC50 (PBLUC_HILL_SLOPE 3.55, PBLUC_R_SQUARED 0.0384, read-out: LUCIFERASE INFECTION ASSAY - IC50) of 7.3 µM and an IC90 of over 10 µM.
With `O=C(N/N=C/c1ccc(F)cc1)c1ccc[n+]([O-])c1` the IC50 (PBLUC_HILL_SLOPE 1.11, PBLUC_R_SQUARED 0.152, read-out: LUCIFERASE INFECTION ASSAY - IC50) was 5.8 µM and the IC90 was over 10 µM.
With `Cc1cc(C(=O)NCCSc2ccccc2)c(C)n1C(C)C` the IC50 (PBLUC_HILL_SLOPE 0.93, PBLUC_R_SQUARED 0.762, read-out: LUCIFERASE INFECTION ASSAY - IC50) was 0.607 µM and the IC90 was 6.44 µM.
Work on `C#CCSc1nc2ccc(Cl)cc2c(=O)n1-c1cc(OC(C)C)c(Cl)cc1Cl` yielded an IC50 (FFLUC_HILL_SLOPE 5.89, FFLUC_R_SQUARED 0.859, HEPG2TOX_HILL_SLOPE 0.407, HEPG2TOX_R_SQUARED 0.572, PBLUC_HILL_SLOPE 3.96, PBLUC_R_SQUARED 0.341, read-out: LUCIFERASE INFECTION ASSAY - IC50) of 5.27 µM and an IC90 of over 7.27 µM.
Compound `CCCCNC(=O)NC(=O)CNc1cc(S(=O)(=O)N2CCCCC2)ccc1OCC` has an IC50 (HEPG2TOX_HILL_SLOPE 3.87, HEPG2TOX_R_SQUARED 0.807, PBLUC_HILL_SLOPE 2.62, PBLUC_R_SQUARED 0.78, read-out: LUCIFERASE INFECTION ASSAY - IC50) of 5.03 µM and an IC90 of over 10 µM.
Compound `CC1CCC(C(C)C)C(N(Cc2ccccc2)C(=O)c2cccc3ccccc23)C1` (stereo unspecified) has an IC50 (FFLUC_HILL_SLOPE 35.1, FFLUC_R_SQUARED 0.0345, HEPG2TOX_HILL_SLOPE 5.62, HEPG2TOX_R_SQUARED 0.422, PBLUC_HILL_SLOPE 0.939, PBLUC_R_SQUARED 0.258, read-out: LUCIFERASE INFECTION ASSAY - IC50) of 6.39 µM and an IC90 of over 8.26 µM.
`N#Cc1ccccc1Sc1ccccc1C(=O)OCc1cc(=O)oc2cc(Br)ccc12` gave an IC50 (HEPG2TOX_HILL_SLOPE 1.78, HEPG2TOX_R_SQUARED 0.958, PBLUC_HILL_SLOPE 3.89, PBLUC_R_SQUARED 0.0824, read-out: LUCIFERASE INFECTION ASSAY - IC50) of 9.13 µM and an IC90 of over 10 µM.
`Cc1cccc(C)c1-n1nnnc1Sc1nc(CN2CCOCC2)nc2sc(C)c(C)c12` showed an IC50 (HEPG2TOX_HILL_SLOPE 14.5, 28.4, HEPG2TOX_R_SQUARED 0.890, 0.649, PBLUC_HILL_SLOPE 85.3, 7.09, PBLUC_R_SQUARED 0.147, 0.386, read-out: LUCIFERASE INFECTION ASSAY - IC50) of 8.67 µM and an IC90 of over 10 µM.
`O=C(Cn1cnc2c(cnn2-c2ccccc2)c1=O)c1c[nH]c2ccccc12` was tested, and the IC50 (HEPG2TOX_HILL_SLOPE 3.41, HEPG2TOX_R_SQUARED 0.825, PBLUC_HILL_SLOPE 1.56, PBLUC_R_SQUARED 0.738, read-out: LUCIFERASE INFECTION ASSAY - IC50) was 2.81 µM and the IC90 was over 10 µM.
Compound `Cc1onc(-c2c(Cl)cccc2Cl)c1C(=O)N1CCCc2ccccc21` has an IC50 (HEPG2TOX_HILL_SLOPE 0.734, HEPG2TOX_R_SQUARED 0.611, PBLUC_HILL_SLOPE 1.71, PBLUC_R_SQUARED 0.613, read-out: LUCIFERASE INFECTION ASSAY - IC50) of 3.64 µM and an IC90 of over 8.52 µM.
`CCCCn1c(=O)[nH]c(=O)c2c1nc(-c1ccc(C)c([N+](=O)[O-])c1)n2CC` was tested, and the IC50 (PBLUC_HILL_SLOPE 20.6, PBLUC_R_SQUARED 0.559, read-out: LUCIFERASE INFECTION ASSAY - IC50) was 3.35 µM and the IC90 was 3.73 µM.
`CCN1CCC(N(C)c2ccc(S(=O)(=O)N3CCCCCC3)cc2[N+](=O)[O-])CC1` was tested, and the IC50 (PBLUC_HILL_SLOPE 3.35, PBLUC_R_SQUARED 0.446, read-out: LUCIFERASE INFECTION ASSAY - IC50) was 6.31 µM and the IC90 was over 10 µM.
`O=C(NNc1ccc(F)cc1)c1cccc(S(=O)(=O)N2CCc3ccccc3C2)c1` showed an IC50 (PBLUC_HILL_SLOPE 14.9, PBLUC_R_SQUARED 0.744, read-out: LUCIFERASE INFECTION ASSAY - IC50) of 9.22 µM and an IC90 of over 10 µM.
With `CCCc1ccc(-c2nc(-c3ccccc3)no2)cc1` the IC50 (FFLUC_HILL_SLOPE 35.1, FFLUC_R_SQUARED 0.438, PBLUC_HILL_SLOPE 1.27, PBLUC_R_SQUARED 0.957, read-out: LUCIFERASE INFECTION ASSAY - IC50) was 0.0177 µM and the IC90 was 0.0999 µM.
For `Oc1c(C(Nc2nc3ccccc3s2)c2ccc(OC(F)F)cc2)ccc2cccnc12` (stereo unspecified), the IC50 [1] was 5.55 µM and the IC90 was over 10 µM.
`Cc1ccc2nc(NC(=O)c3ccc(Cl)cc3)c(C(=O)NCC(C)C)n2c1` was tested, and the IC50 [1] was 2.76 µM and the IC90 was 2.91 µM.
Work on `O=C(NCc1ccco1)C1Cc2c(-c3ccccc3)ccnc2O1` (stereo unspecified) yielded an IC50 (HEPG2TOX_HILL_SLOPE 12.7, HEPG2TOX_R_SQUARED 0.925, PBLUC_HILL_SLOPE 2.58, PBLUC_R_SQUARED 0.503, read-out: LUCIFERASE INFECTION ASSAY - IC50) of 1.59 µM and an IC90 of 3.73 µM.
Compound `O=C(c1ccc(N2CCCC2=O)cc1)N1CCN(C2CCS(=O)(=O)C2)CC1` (stereo unspecified) has an IC50 [1] of over 10 µM and an IC90 of over 10 µM.
For `N#Cc1nn(-c2cccc(Cl)c2)c(=O)cc1Cl`, the IC50 (FFLUC_HILL_SLOPE 0.646, FFLUC_R_SQUARED 0.469, HEPG2TOX_HILL_SLOPE 5.31, HEPG2TOX_R_SQUARED 0.933, PBLUC_HILL_SLOPE 9.19, PBLUC_R_SQUARED 0.334, read-out: LUCIFERASE INFECTION ASSAY - IC50) was 9.36 µM and the IC90 was 11.9 µM.
`Cc1ccc2nc(NC(=O)c3cccc(F)c3)c(C(=O)NCC(C)C)n2c1` gave an IC50 (FFLUC_HILL_SLOPE 3.07, FFLUC_R_SQUARED 0.833, HEPG2TOX_HILL_SLOPE 1.43, HEPG2TOX_R_SQUARED 0.94, PBLUC_HILL_SLOPE 3.56, PBLUC_R_SQUARED 0.485, read-out: LUCIFERASE INFECTION ASSAY - IC50) of 1.69 µM and an IC90 of 3.14 µM.
`CCCCC(=O)NNC(=O)c1nn(-c2ccccc2)cc1O` showed an IC50 (HEPG2TOX_HILL_SLOPE 1.96, 5.56, HEPG2TOX_R_SQUARED 0.938, 0.275, PBLUC_HILL_SLOPE 4.09, 13.0, PBLUC_R_SQUARED 0.105, 0.390, read-out: LUCIFERASE INFECTION ASSAY - IC50) of 4.4 µM and an IC90 of 6.61 µM.
Work on `Nc1cc(C(F)(F)F)ccc1Oc1ccc(Cl)cc1Cl` yielded an IC50 [1] of over 10.2 µM and an IC90 of over 10.2 µM.
`OC(/C(=N/Nc1ncnc2ccccc12)c1ccccc1)c1ccccc1` (stereo unspecified) was tested, and the IC50 (HEPG2TOX_HILL_SLOPE 1.63, HEPG2TOX_R_SQUARED 0.814, PBLUC_HILL_SLOPE 71.4, PBLUC_R_SQUARED 0.509, read-out: LUCIFERASE INFECTION ASSAY - IC50) was 5.86 µM and the IC90 was 6.04 µM.
